Source: patent publication US8790695B2, “Medicinal carriers, and preparation method and uses thereof” (China Medical University, priority 2012, dated 2014)

Tests used:
[1] = tested on: Helicobacter pylori; details: infected mice, fed 30 mg/kg amoxicillin once daily for 10 days
From the text: Small black mice were fed with a broth containing 1.0×10^9 CFU/ml Helicobacter pylori continually for 6 times in 2 weeks, to establish a Helicobacter pylori-infected animal model. The mice were fasted one night before fed with Helicobacter pylori, to decrease the mucus in the stomach, and thereby, increase the probability of infection. Then, the Helicobacter pylori-infected mice (6 mice each group) were fed with (a) the nano medicinal carrier obtained from example 1 (2) (control group); (b) 30 mg/kg amoxicillin; and (c) nano medicinal carrier (the concentration of amoxicillin, 30 mg/kg) obtained from example 1 (4) once daily for 10 days. Then, the mice were sacrificed, and the tissue in the stomach was taken off to conduct the colony number experiment.

[2] = tested on: Helicobacter pylori; details: stomach tissue of infected mice, 37° C. for 12 hours
From the text: Small black mice were fed with a broth containing 1.0×10^9 CFU/ml Helicobacter pylori continually for 6 times in 2 weeks, to establish a Helicobacter pylori-infected animal model. The mice were fasted one night before fed with Helicobacter pylori, to decrease the mucus in the stomach, and thereby, increase the probability of infection. Then, the Helicobacter pylori-infected mice (6 mice each group) were fed with (a) the nano medicinal carrier obtained from example 1 (2) (control group); (b) 30 mg/kg amoxicillin; and (c) nano medicinal carrier (the concentration of amoxicillin, 30 mg/kg) obtained from example 1 (4) once daily for 10 days.
Campylobacter-like organism assay (CLO assay) was conducted to evaluate the effect of nano medicinal carrier on treating the Helicobacter pylori-infected mice. The internal side of the stomach tissue of the Helicobacter pylori-infected mice was touch with CLO gel and compressed, the tissue was incubated at 37° C. for 12 hours, and the variation of the color of the CLO gel was observed. The CLO gel without Helicobacter pylori (contacted with deionized water) is a yellow color. The CLO gel with a little of Helicobacter pylori is a yellow-orange color. The CLO gel with a lot of Helicobacter pylori is a red color. A darker color represents a higher amount of Helicobacter pylori.

CC1(C)S[C@@H]2[C@H](NC(=O)[C@H](N)c3ccc(O)cc3)C(=O)N2[C@H]1C(=O)O [amoxicillin solution, amoxicillin]
The colony number of Helicobacter pylori in the stomach tissue of the mice [1]: 316.9 ± 30.5 | color of the CLO gel (darker color = higher amount of Helicobacter pylori) [2]: red color
